Some test systems named below: CCRF-CEM; HOP-92; MDA-MB-231; K562; MDA-MB-435; HCT-15; COLO 205; NCI/ADR-RES; HCT-116; NCI-H23; SF-268; RXF 393; HL-60; SK-MEL-2; A498; PC-3; SR; IGROV-1; Hs-578T; OVCAR-8.
Common to all, as to assay: inhibition of tumour cell growth, NCI panel, 48 h

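The compound was tested at five concentrations on cells cultured in 96-well plates, with a 48-hour exposure period. GI50 = concentration required for 50% inhibition of growth.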 The source made the active and inactive calls. No stated cut-off is given here; in the data, active = GI50 up to about 1.1 µM and inactive = higher.

Consider `CN1CC[N+](C)=C1c1ccccc1`, for which the GI50 is > 100 µM (inactive) with CCRF-CEM; > 100 µM (inactive) with HOP-92; > 100 µM (inactive) with MDA-MB-231; > 100 µM (inactive) in the test with K562; > 100 µM (inactive) in the test with MDA-MB-435; greater than 100 µM in the test with HCT-15. The GI50 in the test with COLO 205, in the test on NCI/ADR-RES, in the test on HCT-116, in the test on NCI-H23, in the test with SF-268 and with RXF 393 was > 100 µM (inactive) throughout. Moreover, the GI50 in the test on HL-60, in the test on SK-MEL-2, in the test on A498, in the test with PC-3, with SR and in the test on IGROV-1 was > 100 µM (inactive) in each case. The GI50 with Hs-578T and with OVCAR-8 was > 100 µM (inactive) in each case.

On to `CCOC(=O)CC(=O)Nc1cccc2nc[nH]c12`, for which the GI50 was > 100 µM (inactive) in the test on CCRF-CEM; > 100 µM (inactive) in the test on HOP-92; > 100 µM (inactive) with MDA-MB-231; > 100 µM (inactive) in the test on K562; > 100 µM (inactive) with MDA-MB-435; greater than 100 µM in the test on HCT-15. Further, the GI50 in the test with COLO 205 is > 100 µM (inactive); in the test on NCI/ADR-RES, > 100 µM (inactive); with HCT-116 it was > 100 µM (inactive); with NCI-H23, > 100 µM (inactive); with SF-268, 98.2 µM (inactive); with RXF 393, > 100 µM (inactive). In addition, the GI50 in the test with HL-60, with SK-MEL-2, in the test with A498, in the test with PC-3, in the test with SR and in the test on IGROV-1 was > 100 µM (inactive) in each case. The GI50 in the test with Hs-578T is 0.267 µM (active); in the test with OVCAR-8 it was > 100 µM (inactive).

Take `O=CNC(Cc1c[nH]cn1)C(=O)O` (stereo not given): the GI50 in the test with CCRF-CEM was > 100 µM (inactive); with HOP-92, > 100 µM (inactive); with MDA-MB-231, > 100 µM (inactive); in the test on K562 it was > 100 µM (inactive); in the test on MDA-MB-435, > 100 µM (inactive); with HCT-15, greater than 100 µM. Besides, the GI50 in the test on COLO 205, in the test on NCI/ADR-RES, in the test on HCT-116, in the test with NCI-H23, in the test on SF-268 and in the test on RXF 393 was > 100 µM (inactive) throughout. Besides, the GI50 in the test with HL-60, in the test on SK-MEL-2, with A498, in the test with PC-3, with SR and with IGROV-1 was > 100 µM (inactive) each time. Also, the GI50 in the test with Hs-578T and with OVCAR-8 was > 100 µM (inactive) throughout.

In the case of `CSc1ccc(NC(=S)NN(C)C)cc1`, the GI50 in the test on CCRF-CEM is > 10 µM (inactive); in the test on HOP-92 it was > 10 µM (inactive); in the test with MDA-MB-231 it was > 10 µM (inactive); with K562, > 10 µM (inactive); in the test with MDA-MB-435, > 10 µM (inactive); with HCT-15 it was greater than 10 µM. For the same molecule, the GI50 in the test on COLO 205, in the test on NCI/ADR-RES, with HCT-116, in the test with NCI-H23, in the test on SF-268 and with RXF 393 was > 10 µM (inactive) each time. Besides, the GI50 in the test on HL-60, in the test on SK-MEL-2, with A498, in the test with PC-3, with SR and in the test with IGROV-1 was > 10 µM (inactive) each time. For the same molecule, the GI50 in the test on Hs-578T and with OVCAR-8 was > 10 µM (inactive) each time.

For the molecule `Nc1ccn(CC(O)c2cc3ccccc3[nH]2)c(=O)n1` (stereo not given), the GI50 in the test with CCRF-CEM was > 100 µM (inactive); in the test on HOP-92 it was > 100 µM (inactive); in the test on MDA-MB-231, > 100 µM (inactive); with K562 it was > 100 µM (inactive); with MDA-MB-435, > 100 µM (inactive); in the test with HCT-15 it was greater than 100 µM. The GI50 with COLO 205, in the test on NCI/ADR-RES, in the test on HCT-116, in the test with NCI-H23, in the test on SF-268 and in the test on RXF 393 was > 100 µM (inactive) each time. In addition, the GI50 in the test with HL-60, in the test on SK-MEL-2, in the test with A498, with PC-3, with SR and in the test on IGROV-1 was > 100 µM (inactive) each time. In addition, the GI50 with Hs-578T and with OVCAR-8 was > 100 µM (inactive) each time.

Regarding `O=[N+]([O-])c1cc(/C=N/C23CC4CC(CC(C4)C2)C3)ccc1Cl`, the GI50 with CCRF-CEM is 2.82 µM (inactive); in the test with HOP-92, 34.5 µM (inactive); with MDA-MB-231, 11.7 µM (inactive); with K562, 4.42 µM (inactive); with MDA-MB-435, 16.5 µM (inactive); in the test on HCT-15 it was 22.6 µM. Moreover, the GI50 with COLO 205 is 42.6 µM (inactive); in the test on NCI/ADR-RES it was 26.3 µM (inactive); in the test on HCT-116 it was 3.94 µM (inactive); in the test on NCI-H23, 19.1 µM (inactive); in the test with SF-268, 28.7 µM (inactive); in the test with RXF 393 it was 19.2 µM (inactive). Also, the GI50 was 3.03 µM (inactive) in the test with HL-60; 20.5 µM (inactive) with SK-MEL-2; > 100 µM (inactive) in the test with A498; 19.8 µM (inactive) in the test with PC-3; 4.37 µM (inactive) with SR; 23.6 µM (inactive) in the test with IGROV-1. Moreover, the GI50 was 38.8 µM (inactive) in the test on Hs-578T and 25.1 µM (inactive) in the test on OVCAR-8.

Turning to `C#C[C@]1(O)CC[C@H]2[C@@H]3CCC4=C/C(=N/OC(=O)c5cccc6c(=O)c7ccccc7[nH]c56)CC[C@@H]4[C@H]3CC[C@@]21C`, the GI50 is 14.4 µM (inactive) with CCRF-CEM; > 100 µM (inactive) in the test on HOP-92; 51.8 µM (inactive) in the test on MDA-MB-231; 17.3 µM (inactive) in the test with K562; 43.1 µM (inactive) with MDA-MB-435; 36.5 µM in the test with HCT-15. For the same molecule, the GI50 is 24.4 µM (inactive) in the test on COLO 205; 58.6 µM (inactive) with NCI/ADR-RES; 48.5 µM (inactive) in the test with HCT-116; 40.6 µM (inactive) in the test on NCI-H23; 80 µM (inactive) in the test on SF-268; > 100 µM (inactive) with RXF 393. The GI50 was 17.4 µM (inactive) in the test with HL-60; 57.4 µM (inactive) in the test on SK-MEL-2; > 100 µM (inactive) in the test on A498; 37.5 µM (inactive) in the test on PC-3; 12.1 µM (inactive) in the test with SR; 68.4 µM (inactive) with IGROV-1. Further, the GI50 in the test on Hs-578T was 54.1 µM (inactive); with OVCAR-8, 42.1 µM (inactive).

As for `CC1=NN(c2nc(N)nc(CC#N)n2)C(C)(C)C1`, the GI50 was > 100 µM (inactive) in the test on CCRF-CEM; > 100 µM (inactive) in the test with HOP-92; > 100 µM (inactive) in the test on MDA-MB-231; > 100 µM (inactive) with K562; > 100 µM (inactive) in the test with MDA-MB-435; greater than 100 µM in the test with HCT-15. In addition, the GI50 in the test on COLO 205, in the test with NCI/ADR-RES, in the test on HCT-116, in the test with NCI-H23, in the test with SF-268 and in the test with RXF 393 was > 100 µM (inactive) in each case. The GI50 in the test with HL-60, with SK-MEL-2, in the test with A498, in the test with PC-3, in the test with SR and in the test on IGROV-1 was > 100 µM (inactive) in each case. Also, the GI50 in the test on Hs-578T and in the test with OVCAR-8 was > 100 µM (inactive) in each case.

For the molecule `CC1=C(C)C(=O)C(C2=C(C3=CC(=O)C(C)=C(C)C3=O)C(=O)c3ccccc3C2=O)=CC1=O`, the GI50 was 0.619 µM (active) in the test on CCRF-CEM; 2.55 µM (inactive) in the test with HOP-92; 2.37 µM (inactive) in the test with MDA-MB-231; 2.77 µM (inactive) with K562; 1.5 µM (inactive) in the test on MDA-MB-435; 2.12 µM in the test on HCT-15. Besides, the GI50 was 0.863 µM (active) in the test on COLO 205; 10.4 µM (inactive) with NCI/ADR-RES; 2.14 µM (inactive) with HCT-116; 2.79 µM (inactive) with NCI-H23; 3.26 µM (inactive) with SF-268; 1.71 µM (inactive) in the test with RXF 393. Further, the GI50 is 0.255 µM (active) in the test on HL-60; 2.32 µM (inactive) with SK-MEL-2; 8.04 µM (inactive) in the test with A498; 2.61 µM (inactive) in the test with PC-3; 1.47 µM (inactive) with SR; 2.48 µM (inactive) in the test on IGROV-1. Also, the GI50 with Hs-578T was 5.93 µM (inactive); in the test with OVCAR-8 it was 2.38 µM (inactive).

`NN`: the GI50 was 72.3 µM (inactive) in the test on CCRF-CEM; 525 µM (inactive) in the test on HOP-92; 423 µM (inactive) with MDA-MB-231; 88.7 µM (inactive) with K562; 210 µM (inactive) with MDA-MB-435; 296 µM in the test on HCT-15. Besides, the GI50 in the test on COLO 205 was 328 µM (inactive); with NCI/ADR-RES, 740 µM (inactive); in the test with HCT-116 it was 192 µM (inactive); in the test with NCI-H23 it was 359 µM (inactive); in the test on SF-268, 561 µM (inactive); in the test with RXF 393, 453 µM (inactive). Moreover, the GI50 in the test on HL-60 was 205 µM (inactive); in the test on SK-MEL-2 it was 607 µM (inactive); in the test on A498, 317 µM (inactive); in the test with PC-3, 628 µM (inactive); in the test on SR, 100 µM (inactive); in the test with IGROV-1 it was 357 µM (inactive). Also, the GI50 is 809 µM (inactive) with Hs-578T and 406 µM (inactive) in the test with OVCAR-8.

(Values after ChEMBL document CHEMBL1201862, “PubChem BioAssay data set” (2004).)
